One experiment has as its target T1, ROCK1 (Homo sapiens, UniProt Q13464).
T1 construct: purchased Reaction Biology
As to the kind of experiment: ROCK1 kinase assay (Reaction Biology Hot Spot kinase assay). In kind it is biochemical. Conditions: purified kinase, 33P-ATP (10 μM), P81 filter-binding method. The protocol: (§1) ROCK2 and ROCK] kinase assays
(§2) ROCK2 and ROCK1 enzyme potencies were determined by Reaction Biology (www.reactionbiology.com) using their Hot Spot kinase Assay. The base reaction buffer for the assay was 20 mM Hepes (pH 7.5), 10 mM MgCl2, 1 mM EGTA, 0.01% Brij35, 0.02 mg/mL BSA, 0.1 mM Na3VO4, and 2 mM DTT with a 1% DMSO concentration. Required cofactors were added individually to each kinase reaction. The substrate was freshly prepared in the reaction buffer described above, and then cofactors were delivered. The purified kinase was added to the substrate solution and then gently mixed. Compounds were added from 100% DMSO into the kinase reaction mixture by Acoustic technology (Echo550; nanoliter range) and then incubated for 20 min at room temperature. ^33P-ATP (10 μM) was delivered to initiate the reaction, and then the mixture was incubated again for two hours at room temperature. […] Nat. Biotechnol. 2011 Oct. 30; 29(11):1039-45. doi: 10.1038/nbt.2017.
(§3) The compounds were categorized based on IC50 value as “+”, “++”, “+++”, and “++++”. The category “+” refers to compounds with ROCK IC50 value of >10 μM. The category “++” refers to compounds with a ROCK IC50 value of 10 to 3 μM. The category “+++” refers to compounds with ROCK IC50 value of 3 to 0.3 μM. The category “++++” refers to compounds with a ROCK IC50 value of <0.3 μM. “ND” refers to “not determined.” The compound of an “Example Number” is the final product of an Example entitled the Example Number.

A further experiment has as its target T2, ROCK2 (Homo sapiens, UniProt O75116).
T2 construct: purchased Reaction Biology
As to the kind of experiment: ROCK2 kinase assay (Reaction Biology Hot Spot kinase assay). In kind it is biochemical. Conditions: purified kinase, 33P-ATP (10 μM), P81 filter-binding method. Here is the method: as §1, §2, §3

The text below walks through data of patent US20240368132A1, “ROCK2 INHIBITORS AND USES THEREOF” (President and Fellows of Harvard College, priority 2021, published 2024).

Each structure is given as a SMILES string.

T2 sequence (O75116 whole entry): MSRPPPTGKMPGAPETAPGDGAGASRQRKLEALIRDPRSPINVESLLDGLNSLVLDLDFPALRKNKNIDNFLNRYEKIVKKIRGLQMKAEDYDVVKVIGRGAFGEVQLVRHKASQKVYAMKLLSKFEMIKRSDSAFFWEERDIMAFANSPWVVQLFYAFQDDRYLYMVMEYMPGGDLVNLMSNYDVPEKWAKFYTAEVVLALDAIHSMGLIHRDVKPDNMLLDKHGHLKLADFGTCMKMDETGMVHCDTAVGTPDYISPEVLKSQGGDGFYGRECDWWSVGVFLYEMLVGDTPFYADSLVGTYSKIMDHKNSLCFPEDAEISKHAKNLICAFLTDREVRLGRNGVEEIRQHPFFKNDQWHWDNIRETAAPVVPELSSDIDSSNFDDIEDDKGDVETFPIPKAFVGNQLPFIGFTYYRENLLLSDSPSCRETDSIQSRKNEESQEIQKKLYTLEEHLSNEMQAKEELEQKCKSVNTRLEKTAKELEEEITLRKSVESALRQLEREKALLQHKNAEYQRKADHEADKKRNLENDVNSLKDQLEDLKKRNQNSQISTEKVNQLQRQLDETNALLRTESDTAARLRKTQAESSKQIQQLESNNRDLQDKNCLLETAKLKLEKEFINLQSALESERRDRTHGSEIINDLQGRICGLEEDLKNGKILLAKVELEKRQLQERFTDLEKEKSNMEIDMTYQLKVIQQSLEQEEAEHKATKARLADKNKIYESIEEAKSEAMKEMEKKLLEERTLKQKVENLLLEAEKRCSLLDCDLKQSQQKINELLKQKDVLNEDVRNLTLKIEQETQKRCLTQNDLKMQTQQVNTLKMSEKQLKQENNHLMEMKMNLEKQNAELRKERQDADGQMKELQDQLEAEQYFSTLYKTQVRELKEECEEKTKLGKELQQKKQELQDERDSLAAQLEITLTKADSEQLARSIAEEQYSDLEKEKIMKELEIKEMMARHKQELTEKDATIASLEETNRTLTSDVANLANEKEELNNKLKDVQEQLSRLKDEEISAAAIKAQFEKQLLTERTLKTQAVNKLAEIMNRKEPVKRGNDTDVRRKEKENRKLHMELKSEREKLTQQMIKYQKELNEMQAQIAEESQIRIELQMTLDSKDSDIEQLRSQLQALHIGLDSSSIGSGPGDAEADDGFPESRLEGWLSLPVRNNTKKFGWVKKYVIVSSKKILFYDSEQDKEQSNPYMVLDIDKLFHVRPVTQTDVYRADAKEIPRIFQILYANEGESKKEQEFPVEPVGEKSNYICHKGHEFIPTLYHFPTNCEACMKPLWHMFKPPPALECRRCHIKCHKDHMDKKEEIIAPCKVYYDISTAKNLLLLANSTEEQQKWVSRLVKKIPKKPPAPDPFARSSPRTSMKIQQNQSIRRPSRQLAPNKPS
T1 sequence (Q13464 whole entry): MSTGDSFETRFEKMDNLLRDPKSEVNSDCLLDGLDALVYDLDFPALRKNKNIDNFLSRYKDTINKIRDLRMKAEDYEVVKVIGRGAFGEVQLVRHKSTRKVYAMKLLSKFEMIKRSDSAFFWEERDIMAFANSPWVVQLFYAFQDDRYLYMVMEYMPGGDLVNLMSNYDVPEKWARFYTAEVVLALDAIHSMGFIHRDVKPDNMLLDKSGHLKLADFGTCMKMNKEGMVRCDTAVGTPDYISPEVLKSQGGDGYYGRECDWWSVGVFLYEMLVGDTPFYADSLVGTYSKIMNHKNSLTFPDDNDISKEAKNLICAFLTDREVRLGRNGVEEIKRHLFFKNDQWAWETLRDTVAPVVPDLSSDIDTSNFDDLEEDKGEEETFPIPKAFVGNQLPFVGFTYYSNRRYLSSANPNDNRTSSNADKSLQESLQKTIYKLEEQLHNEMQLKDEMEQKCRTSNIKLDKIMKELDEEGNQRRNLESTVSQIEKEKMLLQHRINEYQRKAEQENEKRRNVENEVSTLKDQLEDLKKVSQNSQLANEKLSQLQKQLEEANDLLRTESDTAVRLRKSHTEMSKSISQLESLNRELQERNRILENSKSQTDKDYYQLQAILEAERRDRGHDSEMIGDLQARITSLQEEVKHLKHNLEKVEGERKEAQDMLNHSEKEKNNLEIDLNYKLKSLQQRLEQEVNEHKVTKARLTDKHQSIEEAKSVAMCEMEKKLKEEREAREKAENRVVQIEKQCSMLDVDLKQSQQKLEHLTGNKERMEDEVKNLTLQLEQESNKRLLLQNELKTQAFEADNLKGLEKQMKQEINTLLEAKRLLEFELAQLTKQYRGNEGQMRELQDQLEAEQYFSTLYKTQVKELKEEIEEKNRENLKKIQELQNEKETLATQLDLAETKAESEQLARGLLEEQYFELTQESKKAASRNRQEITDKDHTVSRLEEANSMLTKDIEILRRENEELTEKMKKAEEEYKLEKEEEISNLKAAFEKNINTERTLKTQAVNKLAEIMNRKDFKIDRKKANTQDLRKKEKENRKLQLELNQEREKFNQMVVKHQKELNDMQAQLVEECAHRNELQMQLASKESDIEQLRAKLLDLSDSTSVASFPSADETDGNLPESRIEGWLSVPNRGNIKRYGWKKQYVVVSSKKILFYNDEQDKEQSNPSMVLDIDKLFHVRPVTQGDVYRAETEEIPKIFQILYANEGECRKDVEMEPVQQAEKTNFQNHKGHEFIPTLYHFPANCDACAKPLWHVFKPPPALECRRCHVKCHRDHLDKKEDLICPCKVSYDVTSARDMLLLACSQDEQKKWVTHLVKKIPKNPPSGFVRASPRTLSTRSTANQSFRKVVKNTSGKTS

By IC50 is commonly meant the point on the concentration scale where inhibition reaches its midpoint. Read a high IC50 as lower potency. For `Cn1cc(C(=O)Nc2cccc(-c3nnc(Nc4ccc5[nH]ncc5c4Cl)o3)c2)cn1` [Example 55, N-(3-(5-((4-chloro-1H-indazol-5-yl)amino)-1,3,4-oxadiazol-2-yl)phenyl)-1-methyl-1H-pyrazole-4-carboxamide], the IC50 on ROCK1 and at ROCK2 was below 300 nM each time.

Take `Cn1cc(C(=O)Nc2cccc(-n3nc(Nc4ccc5[nH]ncc5c4Cl)c4ncccc43)c2)cn1` [Example 56, N-(3-(3-((4-chloro-1H-indazol-5-yl)amino)-1H-pyrazolo[4,3-b]pyridin-1-yl)phenyl)-1-methyl-1H-pyrazole-4-carboxamide]: the IC50 is 300 to 3000 nM at ROCK1 and below 300 nM on ROCK2.

Consider `Cn1cc(C(=O)Nc2cc(-n3nc(Nc4ccc5[nH]ncc5c4Cl)c4ccccc43)ccc2F)cn1` [Example 57, N-(5-(3-((4-chloro-1H-indazol-5-yl)amino)-1H-indazol-1-yl)-2-fluorophenyl)-1-methyl-1H-pyrazole-4-carboxamide], for which the IC50 on ROCK1 and on ROCK2 was below 300 nM in each case.

Turning to `Cn1cc(C(=O)Nc2cccc(-n3nc(Nc4ccc5[nH]ncc5c4Cl)c4cnccc43)c2)cn1` [Example 58], the IC50 at ROCK1 and on ROCK2 was below 300 nM in each case.

On to `Cn1cc(C(=O)Nc2cccc(-n3nc(Nc4ccc5[nH]ncc5c4Cl)c4ccncc43)c2)cn1` [Example 59], for which the values for the IC50 on ROCK1 and on ROCK2 were above 10000 nM and below 300 nM, respectively.

As to `Cn1cc(C(=O)Nc2cccc(-n3nc(Nc4ccc5[nH]ncc5c4Cl)c4cccnc43)c2)cn1` [Example 60], the IC50 at ROCK1 and on ROCK2 was below 300 nM throughout.

For `O=C(Nc1cccc(-c2noc(Nc3ccc4[nH]ncc4c3Cl)n2)c1)c1ccccc1F` [Example 61, N-(3-(5-((4-chloro-1H-indazol-5-yl)amino)-1,2,4-oxadiazol-3-yl)phenyl)-2-fluorobenzamide], the IC50 on ROCK1 is below 300 nM; on ROCK2, above 10000 nM.

Take `Cn1cc(C(=O)Nc2cccc(-c3noc(Nc4ccc5[nH]ncc5c4Cl)n3)c2)cn1` [Example 62, N-(3-(5-((4-chloro-1H-indazol-5-yl)amino)-1,2,4-oxadiazol-3-yl)phenyl)-1-methyl-1H-pyrazole-4-carboxamide]: the IC50 at ROCK1 and on ROCK2 was below 300 nM each time.

Take `Cn1cc(C(=O)Nc2cccc(-c3nc(Nc4ccc5[nH]ncc5c4Cl)no3)c2)cn1` [Example 63, N-(3-(3-((4-chloro-1H-indazol-5-yl)amino)-1,2,4-oxadiazol-5-yl)phenyl)-1-methyl-1H-pyrazole-4-carboxamide]: the half-inhibitory concentration (IC50) at ROCK1 and at ROCK2 was below 300 nM throughout.

On to `O=C(Nc1cccc(-c2nc(Nc3ccc4[nH]ncc4c3Cl)no2)c1)c1ccccc1F` [Example 64], for which the IC50 at ROCK1 is 300 to 3000 nM; at ROCK2, below 300 nM.

`Cn1cc(-c2nc3cc(-n4ccc(Nc5ccc6[nH]ncc6c5Cl)n4)ccc3o2)cn1` [Example 65, 4-chloro-N-(1-(2-(1-methyl-1H-pyrazol-4-yl)benzo[d]oxazol-5-yl)-1H-pyrazol-3-yl)-1H-indazol-5-amine]: the half-maximal inhibitory concentration (IC50) at ROCK1 was 300 to 3000 nM; on ROCK2 it was below 300 nM.

Regarding `Cn1cc(-c2nc3cc(-n4nc(Nc5ccc6[nH]ncc6c5Cl)c5ccccc54)ccc3o2)cn1` [Example 66], the IC50 on ROCK1 and at ROCK2 was above 10000 nM each time.

Take `Cn1cc(C(=O)Nc2cc(-c3nnc(Nc4ccc5[nH]ncc5c4Cl)o3)cn(C)c2=O)cn1` [Example 67, N-[5-[5-[(4-chloro-1H-indazol-5-yl)amino]-1,3,4-oxadiazol-2-yl]-1-methyl-2-oxo-3-pyridyl]-1-methyl-pyrazole-4-carboxamide]: the IC50 on ROCK1 and at ROCK2 was below 300 nM throughout.

`Cn1cc(-n2nc(Nc3ccc4[nH]ncc4c3Cl)c3ccccc32)cc(NC(=O)c2ccccc2F)c1=O` [Example 68, N-(5-(3-((4-chloro-1H-indazol-5-yl)amino)-1H-indazol-1-yl)-1-methyl-2-oxo-1,2-dihydropyridin-3-yl)-2-fluorobenzamide]: the IC50 on ROCK1 and at ROCK2 was below 300 nM in each case.

Consider `Cn1cc(C(=O)Nc2cc(-n3nc(Nc4ccc5[nH]ncc5c4Cl)c4ccccc43)cn(C)c2=O)cn1` [Example 69], for which the concentration for half-maximal inhibition (IC50) at ROCK1 and on ROCK2 was above 10000 nM in each case.

For the compound `COc1cc(-n2nc(C(F)(F)F)cc2Nc2ccc3[nH]ncc3c2Cl)ccc1OCC(=O)NC(C)C` [Example 70, 2-(4-(5-((4-chloro-1H-indazol-5-yl)amino)-3-(trifluoromethyl)-1H-pyrazol-1-yl)-2-methoxyphenoxy)—N-isopropylacetamide], the IC50 at ROCK1 and at ROCK2 was 300 to 3000 nM in each case.

With `COc1cc(-c2nnc(Nc3ccc4[nH]ncc4c3Cl)o2)ccc1OCC(=O)NC(C)C` [Example 72, 2-[4-[5-[(4-chloro-1H-indazol-5-yl)amino]-1,3,4-oxadiazol-2-yl]-2-methoxy-phenoxy]-N-isopropyl-acetamide], the IC50 on ROCK1 was 300 to 3000 nM; at ROCK2, below 300 nM.

In the case of `COc1cc(-c2nc(Nc3ccc4[nH]ncc4c3Cl)no2)ccc1OCC(=O)NC(C)C` [Example 73, 2-[4-[3-[(4-chloro-1H-indazol-5-yl)amino]-1,2,4-oxadiazol-5-yl]-2-methoxy-phenoxy]-N-isopropyl-acetamide], the values for the IC50 at ROCK1 and at ROCK2 were 300 to 3000 nM and below 300 nM, respectively.

Regarding `Cn1cc(C(=O)Nc2cccc(-c3cc(Nc4ccc5[nH]ncc5c4Cl)no3)c2)cn1` [Example 74, N-(3-(3-((4-chloro-1H-indazol-5-yl)amino)isoxazol-5-yl)phenyl)-1-methyl-1H-pyrazole-4-carboxamide], the IC50 on ROCK1 and on ROCK2 was below 300 nM each time.

`CC(C)NC(=O)COc1ccc(-n2ccc(Nc3ccc4[nH]ncc4c3Cl)n2)cc1F` [Example 75, 2-(4-(3-((4-chloro-1H-indazol-5-yl)amino)-1H-pyrazol-1-yl)-2-fluorophenoxy)—N-isopropylacetamide]: the half-inhibitory concentration (IC50) at ROCK1 is 300 to 3000 nM; at ROCK2 it was below 300 nM.

`COC(=O)CN1CCOc2cc(-n3cc(C)c(Nc4ccc5[nH]ncc5c4Cl)n3)ccc21` [Example 76, methyl 2-[7-[3-[(4-chloro-1H-indazol-5-yl)amino]-4-methyl-pyrazol-1-yl]-2,3-dihydro-1,4-benzoxazin-4-yl]acetate]: the IC50 at ROCK1 and on ROCK2 was above 10000 nM throughout.

`Cc1cn(-c2ccc3c(c2)OCCN3CC(=O)NC(C)C)nc1Nc1ccc2[nH]ncc2c1Cl` [Example 77, 2-[7-[3-[(4-chloro-1H-indazol-5-yl)amino]-4-methyl-pyrazol-1-yl]-2,3-dihydro-1,4-benzoxazin-4-yl]-N-isopropyl-acetamide]: the results for the IC50 at ROCK1 and at ROCK2 were 3000 to 10000 nM and 300 to 3000 nM, respectively.

As to `Cc1cn(-c2ccc3c(c2)CCN(C(=O)NC(C)C)C3)nc1Nc1ccc2[nH]ncc2c1Cl` [Example 78, 6-(3-((4-chloro-1H-indazol-5-yl)amino)-4-methyl-1H-pyrazol-1-yl)-N-isopropyl-3,4-dihydroisoquinoline-2(1H)-carboxamide], the concentration for half-maximal inhibition (IC50) at ROCK1 is 300 to 3000 nM; on ROCK2 it was below 300 nM.

Consider `Cc1cn(-c2ccc3c(c2)CCN(C(=O)C2CC2)C3)nc1Nc1ccc2[nH]ncc2c1Cl` [Example 79, [6-[3-[(4-chloro-1H-indazol-5-yl)amino]-4-methyl-pyrazol-1-yl]-3,4-dihydro-1H-isoquinolin-2-yl]-cyclopropyl-methanone], for which the IC50 was 3000 to 10000 nM at ROCK1 and below 300 nM at ROCK2.

`Cc1cn(-c2ccc3c(c2)CCN(C(=O)C(C)C)C3)nc1Nc1ccc2[nH]ncc2c1Cl` [Example 80, 1-[6-[3-[(4-chloro-1H-indazol-5-yl)amino]-4-methyl-pyrazol-1-yl]-3,4-dihydro-1H-isoquinolin-2-yl]-2-methyl-propan-1-one] showed an IC50 at ROCK1 above 10000 nM. Besides, the “ROCK2 IC50” value on ROCK2 is on record as “+ +”.

As for `Cc1cn(-c2ccc3c(c2)CCN(C(=O)C2CCCC2)C3)nc1Nc1ccc2[nH]ncc2c1Cl` [Example 81], the IC50 at ROCK1 and on ROCK2 was above 10000 nM throughout.

`Cc1cn(-c2ccc3c(c2)CCN(S(=O)(=O)C2CC2)C3)nc1Nc1ccc2[nH]ncc2c1Cl` [Example 82]: the results for the IC50 at ROCK1 and at ROCK2 were above 10000 nM and below 300 nM, respectively.

For the compound `Cc1cn(-c2ccc3c(c2)CCNC3=O)nc1Nc1ccc2[nH]ncc2c1Cl` [Example 83, 6-(3-((4-chloro-1H-indazol-5-yl)amino)-4-methyl-1H-pyrazol-1-yl)-3,4-dihydroisoquinolin-1(2H)-one], the IC50 at ROCK1 and on ROCK2 was below 300 nM in each case.

Take `Cc1cn(-c2ccc3c(c2)CCN(CC(C)C)C3=O)nc1Nc1ccc2[nH]ncc2c1Cl` [Example 84, 6-[3-[(4-chloro-1H-indazol-5-yl)amino]-4-methyl-pyrazol-1-yl]-2-isobutyl-3,4-dihydroisoquinolin-1-one]: the IC50 on ROCK1 was 3000 to 10000 nM; at ROCK2, below 300 nM.
